Here are results for two compounds from US20250281625A1, “FOLIC ACID-CONJUGATED AMINOCLAY BASED NANOCOMPOSITES FOR THE SITE-SPECIFIC DRUG DELIVERY, METHOD FOR THEIR PREPARATION AND THEIR USE” (Dongguk University Industry-Academic Cooperation Foundation, priority 2021, published 2025).

The conditions of data set [1]: in water; cited from earlier work.
A further data set has as its system colitis-induced mice. As to the kind of experiment: in vivo efficacy in dextran sodium sulfate colitis-induced mice. Further details: species or system C57BL/6 mice. As to conditions: oral, 10 mg/kg once daily for 8 days, DSS colitis mice, day 9. The protocol: (§1) Before inducing colitis, 8-week-old C57BL/6 mice were raised under standard conditions at 21° C. to 22° C. in a 12-hour light/dark cycle for 7 days. On the day of the experiment (Day 0), mice were randomly divided into five groups: a healthy control group and four experimental groups [dextran sodium sulfate administration group (DSS), dextran sodium sulfate and phosphate-buffer saline (PBS) administration group (DSS+PBS), dextran sodium sulfate and infliximab administration group (DSS+IFX), and dextran sodium sulfate and EFA-AC-IFX administration group (DSS+EFA-AC-IFX)]. Colitis was induced in mice by adding 2.0% (w/v) dextran sodium sulfate to drinking water.
To investigate the therapeutic effect of nanoparticles, colitis-induced mice in each experimental group were orally administered with 200 μL of PBS, infliximab (10 mg/kg), or EFA-AC-IFX (10 mg/kg) once daily for 8 days. On Day 8, drinking water containing dextran sodium sulfate was replaced with pure water. […]
To evaluate the therapeutic efficacy of EFA-AC-IFX for colitis, mouse colon tissues were histologically analyzed using hematoxylin-eosin (H&E) staining. […] The severity of colitis in each colonic section was assessed using a blinded approach by measuring mucosal features, such as epithelial damage, mucosal edema, and inflammatory cell infiltration of the mucosa.

The next data set concerns TNF-α. Put plainly: TNF-α concentration in colonic samples of colitis-induced mice (ELISA). The following applies: oral, 10 mg/kg once daily for 8 days, DSS colitis mice, compared to control group. It counts as in vivo, C57BL/6 mice. How it is done: as §1
To investigate the therapeutic effect of nanoparticles, colitis-induced mice in each experimental group were orally administered with 200 μL of PBS, infliximab (10 mg/kg), or EFA-AC-IFX (10 mg/kg) once daily for 8 days. On Day 8, drinking water containing dextran sodium sulfate was replaced with pure water. During the experiment, changes in body weight, stool consistency, and the presence of blood in the stool or anus were checked daily. […]
The level of TNF-α, one of the important inflammatory mediators involved in the pathogenesis of ulcerative colitis, is increased by inducing colitis in mice. Therefore, the concentration of TNF-α in colonic samples obtained from each experimental group was quantified using a TNF-α ELISA kit.

`Nc1nc2ncc(CNc3ccc(C(=O)N[C@@H](CCC(=O)O)C(=O)O)cc3)nc2c(=O)[nH]1` [folic acid]: in data set [1], the water solubility is 0.0016 mg/g.

In the case of Infliximab, the colon length in the data set with colitis-induced mice came out at 6.2±0.25 cm. The “concentration of TNF-α in colonic samples” value in the data set with TNF-α was “significantly increased compared to the control group”.
